The values below come from patent US10273224B2, “Substituted pyrimidine compounds, compositions and medicinal applications thereof” (JUBILANT BIOSYS LIMITED, priority 2013, dated 2019).

The target in the assay is T1, EGFR (L858R & T790M) (Homo sapiens, UniProt P00533, L858R/T790M).
T1 construct: GST; purchased Proqinase
T1 sequence (P00533 25-1210 T790M/L858R): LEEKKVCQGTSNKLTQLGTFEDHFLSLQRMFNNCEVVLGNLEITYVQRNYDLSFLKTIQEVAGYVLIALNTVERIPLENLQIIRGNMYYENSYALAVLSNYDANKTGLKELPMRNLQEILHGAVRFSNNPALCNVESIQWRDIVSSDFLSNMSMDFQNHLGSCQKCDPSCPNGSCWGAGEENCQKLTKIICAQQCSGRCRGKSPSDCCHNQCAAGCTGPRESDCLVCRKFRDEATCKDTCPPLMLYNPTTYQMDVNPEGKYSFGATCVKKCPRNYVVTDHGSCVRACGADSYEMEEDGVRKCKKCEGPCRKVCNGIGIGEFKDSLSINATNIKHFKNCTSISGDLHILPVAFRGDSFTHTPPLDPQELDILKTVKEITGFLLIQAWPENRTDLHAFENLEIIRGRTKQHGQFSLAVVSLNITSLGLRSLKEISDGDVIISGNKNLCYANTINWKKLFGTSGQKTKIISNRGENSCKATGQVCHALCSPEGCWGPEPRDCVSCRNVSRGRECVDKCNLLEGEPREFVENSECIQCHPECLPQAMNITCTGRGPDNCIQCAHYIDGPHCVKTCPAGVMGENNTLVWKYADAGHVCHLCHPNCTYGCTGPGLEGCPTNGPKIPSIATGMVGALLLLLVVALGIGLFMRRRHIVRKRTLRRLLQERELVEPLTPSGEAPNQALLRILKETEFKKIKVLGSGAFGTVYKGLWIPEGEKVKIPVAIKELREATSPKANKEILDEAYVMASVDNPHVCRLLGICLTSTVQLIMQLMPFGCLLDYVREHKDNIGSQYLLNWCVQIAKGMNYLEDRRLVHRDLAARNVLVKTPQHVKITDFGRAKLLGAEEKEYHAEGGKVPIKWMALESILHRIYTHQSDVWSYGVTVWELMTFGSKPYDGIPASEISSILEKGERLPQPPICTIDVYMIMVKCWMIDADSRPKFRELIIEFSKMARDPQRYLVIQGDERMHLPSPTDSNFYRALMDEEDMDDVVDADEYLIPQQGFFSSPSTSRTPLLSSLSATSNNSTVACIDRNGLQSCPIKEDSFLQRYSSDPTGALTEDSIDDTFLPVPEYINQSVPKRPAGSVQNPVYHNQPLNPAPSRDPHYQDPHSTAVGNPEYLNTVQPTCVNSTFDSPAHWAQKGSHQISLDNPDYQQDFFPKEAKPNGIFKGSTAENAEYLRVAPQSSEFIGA
As to the kind of experiment: EGFR (L858R & T790M) inhibition assay, HTRF method. Particulars: biochemical HTRF; EGFR (T790M/L858R) 2.5 nM, ATP 5 μM, 60 min room temperature. In a few lines: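 GST-EGFR T790M/L858R (2.5 nM) phosphorylating biotinylated gastrin precursor peptide (0.5 μM) with 5 μM ATP in HEPES pH 7.4/Mg/Mn buffer, 60 min room temperature; compounds from 10 μM top. HTRF read-out (Eu anti-pTyr, SA-APC), 665/620 nm; IC50 from % inhibition.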
With `CN1CCC(n2cc(Nc3ncc(F)c(Nc4cccc(NC(=O)C=C5CCCCC5)c4)n3)cn2)CC1` [Compound I-50, 2-cyclohexylidene-N-(3-((5-fluoro-2-((1-(1-methylpiperidin-4-yl)-1H-pyrazol-4-yl)amino)pyrimidin-4-yl)amino)phenyl)acetamide], the half-maximal inhibitory concentration (IC50) was more than 100 nM.
In the case of `C=CC(=O)NC1CCCC(Nc2nc(Nc3cnn(C)c3)ncc2Cl)C1` (centres unmarked) [Compound I-92, N-(3-((5-chloro-2-((1-methyl-1H-pyrazol-4-yl)amino)pyrimidin-4-yl)amino)cyclohexyl)acrylamide], the half-inhibitory concentration (IC50) fell in the range of 10 to 100 nM.
For `C#CC(=O)Nc1cccc(Nc2nc(Nc3cnn(C)c3)ncc2Cl)c1` [Compound I-32, N-(3-((5-chloro-2-((1-methyl-1H-pyrazol-4-yl)amino)pyrimidin-4-yl)amino)phenyl)propiolamide], the IC50 was in the range of 10 to 100 nM.
For the compound `C=CC(=O)Nc1cccc(Nc2nc(Nc3cnn(C)c3)ncc2Cl)c1` [Compound I-19, N-(3-((5-chloro-2-((1-methyl-1H-pyrazol-4-yl)amino)pyrimidin-4-yl)amino)phenyl)acrylamide], the IC50 was less than 10 nM.
Next, `C=CC(=O)N1CCC(Nc2nc(Nc3cnn(C)c3)ncc2Cl)CC1` [II-8, 1-(4-((5-chloro-2-((1-methyl-1H-pyrazol-4-yl)amino)pyrimidin-4-yl)amino)piperidin-1-yl)prop-2-en-1-one]: more than 100 nM; `C=CC(=O)Nc1cccc(Nc2nc(Nc3cnn(C4COC4)c3)ncc2Cl)c1` [Compound I-31, N-(3-((5-chloro-2-((1-(oxetan-3-yl)-1H-pyrazol-4-yl)amino)pyrimidin-4-yl)amino)phenyl)acrylamide]: 10 to 100 nM; `C=CC(=O)NC1CCCC(Nc2nc(Nc3cnn(C)c3)ncc2C)C1` (centres unmarked) [Compound I-100, N-(3-((5-methyl-2-((1-methyl-1H-pyrazol-4-yl)amino)pyrimidin-4-yl)amino)cyclohexyl)acrylamide]: more than 100 nM.
In the case of `C=CC(=O)Nc1ccc(F)c(Nc2nc(Nc3ncc(C#N)s3)ncc2Cl)c1` [Compound I-121, N-(3-((5-chloro-2-((5-cyanothiazol-2-yl)amino)pyrimidin-4-yl)amino)-4-fluorophenyl)acrylamide], the half-inhibitory concentration (IC50) is more than 100 nM.
Turning to `C=CC(=O)Nc1cccc(Nc2nc(Nc3cc(CN4CCOCC4)n(C)n3)ncc2Cl)c1` [Compound I-46, N-(3-((5-chloro-2-((1-methyl-5-(morpholinomethyl)-1H-pyrazol-3-yl)amino)pyrimidin-4-yl)amino)phenyl)acrylamide], the concentration for half-maximal inhibition (IC50) was more than 100 nM.
Next, `C=CC(=O)N[C@H]1CCCC[C@@H](Nc2nc(Nc3cnn(C)c3)ncc2Cl)C1` (single isomer, unassigned) [I-112 (Isomer 1)]: more than 100 nM; `CN(C)C/C=C/C(=O)N1CCCC(Nc2nc(Nc3cnn(C)c3)ncc2Cl)C1` (single isomer, unassigned) [II-3 (Enantiomer 1), (E)-1-(3-((5-chloro-2-((1-methyl-1H-pyrazol-4-yl)amino)pyrimidin-4-yl)amino)piperidin-1-yl)-4-(dimethylamino)but-2-en-1-one]: more than 100 nM.
The value for `C=CC(=O)Nc1cccc(Nc2nc(Nc3nnc(N4CCN(C)CC4)s3)ncc2Cl)c1` [Compound I-41, N-(3-((5-chloro-2-((5-(4-methylpiperazin-1-yl)-1,3,4-thiadiazol-2-yl)amino)pyrimidin-4-yl)amino)phenyl)acrylamide] was 10 to 100 nM; that for `Cn1cc(Nc2ncc(Cl)c(Nc3cccc(N4C(=O)C=CC4=O)c3)n2)cn1` [Compound I-63, 1-(3-((5-chloro-2-((1-methyl-1H-pyrazol-4-yl)amino)pyrimidin-4-yl)amino)phenyl)-1H-pyrrole-2,5-dione] was more than 100 nM.
Next, `C=CC(=O)Nc1cccc(C(C)Nc2nc(Nc3cnn(C)c3)ncc2Cl)c1` (centres unmarked) [Compound I-56, N-(3-(1-((5-chloro-2-((1-methyl-1H-pyrazol-4-yl)amino)pyrimidin-4-yl)amino)ethyl)phenyl)acrylamide]: more than 100 nM.

By IC50 is commonly meant the concentration needed to halve the response being measured.
